According to ChEMBL document CHEMBL1201862, “PubChem BioAssay data set” (2004):
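Five compound concentrations were applied to cells in 96-well plates for 48 hours; endpoints were derived by simple linear interpolation of the resulting dose-response curve. GI50 marks 50% less growth.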 The source made the active and inactive calls. No stated cut-off is given here; in the data, active = GI50 up to about 1.1 µM and inactive = higher.

Key:
Experiment in all cases: NCI tumour cell line growth inhibition, 48 h
786-0 = test system: 786-0
HL-60 = test system: HL-60
MOLT-4 = test system: MOLT-4
OVCAR-4 = test system: OVCAR-4
SK-MEL-5 = test system: SK-MEL-5
SW-620 = test system: SW-620
EKVX = test system: EKVX
SNB-19 = test system: SNB-19
KM12 = test system: KM12
OVCAR-8 = test system: OVCAR-8
Malme-3M = test system: Malme-3M
NCI-H460 = test system: NCI-H460
M19-MEL = test system: M19-MEL
HOP-62 = test system: HOP-62
UACC-257 = test system: UACC-257
HT-29 = test system: HT-29
HCT-15 = test system: HCT-15
MDA-N = test system: MDA-N
DU-145 = test system: DU-145
Hs-578T = test system: Hs-578T

Structure (SMILES)	GI50 (786-0)	GI50 (HL-60)	GI50 (MOLT-4)	GI50 (OVCAR-4)	GI50 (SK-MEL-5)	GI50 (SW-620)	GI50 (EKVX)	GI50 (SNB-19)	GI50 (KM12)	GI50 (OVCAR-8)	GI50 (Malme-3M)	GI50 (NCI-H460)	GI50 (M19-MEL)	GI50 (HOP-62)	GI50 (UACC-257)	GI50 (HT-29)	GI50 (HCT-15)	GI50 (MDA-N)	GI50 (DU-145)	GI50 (Hs-578T)
CC1CC[C@@]23CCC4(C)[C@@](C=CC5[C@@]6(C)CCC(=O)C(C)(C)C6CC[C@]54C)(OC2=O)[C@@H]3[C@H]1C (some centres not stated)	24.3 µM (inactive)	1.6 µM (inactive)	7.29 µM (inactive)	29.4 µM (inactive)	4.84 µM (inactive)	30.8 µM (inactive)	32.1 µM (inactive)	29.8 µM (inactive)	12 µM (inactive)	18.6 µM (inactive)	20.9 µM (inactive)	13.2 µM (inactive)	17.9 µM (inactive)	16.9 µM (inactive)	6.59 µM (inactive)	16.4 µM (inactive)				
COC(=O)CC1C[C@H](C#N)N(C(=O)c2ccccc2)C[C@@H]1CC[N+](=O)[O-] (some centres not stated)	> 100 µM (inactive)	> 100 µM (inactive)	> 100 µM (inactive)	> 100 µM (inactive)	> 100 µM (inactive)	> 100 µM (inactive)	> 100 µM (inactive)	> 100 µM (inactive)	> 100 µM (inactive)	> 100 µM (inactive)	> 100 µM (inactive)	> 100 µM (inactive)	> 100 µM (inactive)	> 100 µM (inactive)	> 100 µM (inactive)	> 100 µM (inactive)	> 100 µM			
CCOC(=O)c1oc2ccc([N+](=O)[O-])c3c2c1CCC3	25.6 µM (inactive)	> 93.8 µM (inactive)	> 100 µM (inactive)	> 100 µM (inactive)	69.7 µM (inactive)	> 90.8 µM (inactive)	73.6 µM (inactive)	34.7 µM (inactive)	> 79.3 µM (inactive)	82.4 µM (inactive)	> 63.4 µM (inactive)	> 100 µM (inactive)	> 100 µM (inactive)	24.3 µM (inactive)	> 82 µM (inactive)	> 100 µM (inactive)	97.9 µM	> 100 µM (inactive)	> 100 µM (inactive)	29.2 µM (inactive)
Sc1ncnc2nc[nH]c12 [MERCAPTOPURINE ANHYDROUS]	2.03 µM (inactive)	2.44 µM (inactive)	1.61 µM (inactive)	8.05 µM (inactive)	8.36 µM (inactive)	6.38 µM (inactive)	263 µM (inactive)	128 µM (inactive)	7.57 µM (inactive)	2.54 µM (inactive)	3.66 µM (inactive)	5.53 µM (inactive)	69 µM (inactive)	1.75 µM (inactive)	14.4 µM (inactive)	4.02 µM (inactive)	4.57 µM	1.78 µM (inactive)	2.51 µM (inactive)	14.2 µM (inactive)
CC(/C(=N\Nc1ccccc1)c1ccc(O)cc1)C1C(=O)Oc2ccccc21 (configuration not stated)	> 100 µM (inactive)	> 100 µM (inactive)	> 100 µM (inactive)	> 100 µM (inactive)	> 100 µM (inactive)	> 100 µM (inactive)	> 100 µM (inactive)	> 100 µM (inactive)	> 100 µM (inactive)	> 100 µM (inactive)	> 100 µM (inactive)	> 100 µM (inactive)	> 100 µM (inactive)	> 100 µM (inactive)	> 100 µM (inactive)	> 100 µM (inactive)	> 100 µM			
CC(=O)NC(C=O)C(O[C@H](C)C(=O)NC(C)C(=O)NC(CCC(N)=O)C(=O)OCc1ccccc1)C(O)C(O)COC(=O)CCNc1c2ccccc2nc2cccc([N+](=O)[O-])c12 (some centres not stated)	4.56 µM (inactive)	11.5 µM (inactive)	3.57 µM (inactive)	12.2 µM (inactive)	> 100 µM (inactive)	1.99 µM (inactive)	5.7 µM (inactive)	4.49 µM (inactive)	1.91 µM (inactive)	4.89 µM (inactive)	2.15 µM (inactive)	1.73 µM (inactive)	1.66 µM (inactive)	2.95 µM (inactive)	7.46 µM (inactive)	2.14 µM (inactive)	11.4 µM			
COc1ccc(C2c3cc(OC)c(OC)cc3C(Cc3ccc([N+](=O)[O-])cc3)C2c2ccc([N+](=O)[O-])cc2)cc1OC (configuration not stated)	> 100 µM (inactive)	> 100 µM (inactive)	> 100 µM (inactive)	> 100 µM (inactive)	> 100 µM (inactive)	> 100 µM (inactive)	> 100 µM (inactive)	> 100 µM (inactive)	> 100 µM (inactive)	> 100 µM (inactive)	> 100 µM (inactive)	> 100 µM (inactive)	> 100 µM (inactive)	> 100 µM (inactive)	> 100 µM (inactive)	> 100 µM (inactive)	> 100 µM			
C=C1C(=O)O[C@@H]2C[C@@H](C)[C@@H]3C=CC(=O)[C@@]3(C)[C@@H](OC(=O)CC(=O)O[C@H]3[C@@H]4C(=C)C(=O)O[C@@H]4C[C@@H](C)[C@@H]4C=CC(=O)[C@]43C)[C@H]12	0.0199 µM (active)	< 0.01 µM (active)	0.0153 µM (active)	0.0468 µM (active)	0.0869 µM (active)	0.0129 µM (active)	0.0811 µM (active)	0.548 µM (active)	0.0478 µM (active)	0.0299 µM (active)	0.0174 µM (active)	0.161 µM (active)	0.0141 µM (active)	0.44 µM (active)	0.0252 µM (active)	0.0342 µM (active)	0.0309 µM	0.0755 µM (active)	2.56 µM (inactive)	0.167 µM (active)
CC(=O)OCC1OC(N2C(=O)[C@@H](Oc3ccccc3)[C@H]2/C=C/c2ccccc2)C(OC(C)=O)C(OC(C)=O)C1OC(C)=O (some centres not stated)	> 100 µM (inactive)	> 100 µM (inactive)	> 100 µM (inactive)	> 100 µM (inactive)	> 100 µM (inactive)	> 100 µM (inactive)	> 100 µM (inactive)	31.6 µM (inactive)		> 100 µM (inactive)	> 100 µM (inactive)	> 100 µM (inactive)	> 100 µM (inactive)	40.1 µM (inactive)	> 100 µM (inactive)	> 100 µM (inactive)	> 100 µM			
COC(CN1C(=O)c2cccc3cccc(c23)C1=O)OC	> 100 µM (inactive)	72.9 µM (inactive)	32.3 µM (inactive)	> 100 µM (inactive)	70.1 µM (inactive)	91.8 µM (inactive)	49 µM (inactive)	> 100 µM (inactive)	80.4 µM (inactive)	71 µM (inactive)	> 100 µM (inactive)	41.3 µM (inactive)	> 100 µM (inactive)	43.7 µM (inactive)	78.2 µM (inactive)	> 100 µM (inactive)	53.6 µM			
